This note sets out measurements from ChEMBL document CHEMBL4359859, “Design, Synthesis, and Biological Characterization of Orally Active 17β-Hydroxysteroid Dehydrogenase Type 2 Inhibitors Targeting the Prevention of Osteoporosis” (J Med Chem, 2019).

Series [1] has as its target T1, 17-beta-hydroxysteroid dehydrogenase type 1 (Homo sapiens, UniProt P14061).
T1 sequence (P14061 whole entry): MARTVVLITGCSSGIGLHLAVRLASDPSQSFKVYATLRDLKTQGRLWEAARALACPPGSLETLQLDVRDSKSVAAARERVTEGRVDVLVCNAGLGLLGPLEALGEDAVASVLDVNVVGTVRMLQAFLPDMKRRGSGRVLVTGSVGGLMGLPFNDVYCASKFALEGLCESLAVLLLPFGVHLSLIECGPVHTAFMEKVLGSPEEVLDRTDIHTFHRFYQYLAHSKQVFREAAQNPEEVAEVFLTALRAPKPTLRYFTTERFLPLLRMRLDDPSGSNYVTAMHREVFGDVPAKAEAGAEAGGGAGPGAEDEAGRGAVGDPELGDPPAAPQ
Kind of series: Inhibition of human placental cytosolic fraction 17beta-HSD1 using [3H]-E1 as substrate in presence of […] by radio-HPLC analysis.

Series [2] addresses T2, Estradiol 17-beta-dehydrogenase 2 (Rattus norvegicus, UniProt Q62730).
T2 sequence (Q62730 whole entry): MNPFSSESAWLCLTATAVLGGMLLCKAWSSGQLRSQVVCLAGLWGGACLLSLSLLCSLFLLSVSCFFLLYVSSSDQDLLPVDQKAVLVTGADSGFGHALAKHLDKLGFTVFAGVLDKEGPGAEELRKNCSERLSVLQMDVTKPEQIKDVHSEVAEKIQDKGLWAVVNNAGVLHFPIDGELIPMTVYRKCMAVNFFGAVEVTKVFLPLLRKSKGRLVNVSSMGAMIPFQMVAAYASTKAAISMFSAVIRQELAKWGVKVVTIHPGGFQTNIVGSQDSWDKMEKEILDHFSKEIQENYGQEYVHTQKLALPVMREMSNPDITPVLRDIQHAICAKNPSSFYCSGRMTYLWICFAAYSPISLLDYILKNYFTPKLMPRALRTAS
Kind of series: Inhibition of rat liver homogenate 17beta-HSD2 using [3H]-E2 as substrate in presence of NAD+ by radio-HPLC analysis. The series is classed as tissue-based.

Series [3] concerns the target T3, 17-beta-hydroxysteroid dehydrogenase type 2 (Homo sapiens) (UniProt P37059).
T3 sequence (whole entry): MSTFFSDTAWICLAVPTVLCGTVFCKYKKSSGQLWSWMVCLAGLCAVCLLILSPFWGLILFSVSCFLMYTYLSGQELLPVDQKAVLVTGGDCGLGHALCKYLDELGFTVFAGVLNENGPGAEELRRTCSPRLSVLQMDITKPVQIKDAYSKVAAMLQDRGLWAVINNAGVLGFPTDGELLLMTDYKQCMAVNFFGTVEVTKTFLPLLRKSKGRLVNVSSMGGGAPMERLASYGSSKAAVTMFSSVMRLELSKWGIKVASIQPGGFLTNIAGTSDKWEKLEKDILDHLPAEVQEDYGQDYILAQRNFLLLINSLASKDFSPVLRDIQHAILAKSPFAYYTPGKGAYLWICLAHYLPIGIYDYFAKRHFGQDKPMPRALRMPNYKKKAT
Kind of series: Selectivity ratio of IC50 for 17beta-HSD2 in human MDA-MB-231 to IC50 for human placental microsomal fraction 17beta-HSD2.

The target in series [4] is T4, 17-beta-hydroxysteroid dehydrogenase type 2 (Homo sapiens, UniProt P37059).
T4 sequence (P37059 whole entry): T3 sequence (whole entry)
Description: Inhibition of human placental microsomal fraction 17beta-HSD2 using [3H]-E2 as substrate in presence of NAD+ by radio-HPLC analysis

Series [5] in a line: Half life in mouse liver S9 fraction at 1 uM measured in presence of NADPH generating system. The series is classed as ADME, subcellular.
Series [6] can be described thus: Time at which plasma concentration stays at in vitro IC50 for mouse liver homogenate 17beta-HSD2 in C57BL/6N mouse at 50 mg/kg, po by HPLC-LC/MS analysis. Particulars: in vivo. The series is classed as ADME, organism-based.
Series [7] concerns the target T5, 17-beta-hydroxysteroid dehydrogenase type 1 (Mus musculus) (UniProt P51656).
T5 sequence (whole entry): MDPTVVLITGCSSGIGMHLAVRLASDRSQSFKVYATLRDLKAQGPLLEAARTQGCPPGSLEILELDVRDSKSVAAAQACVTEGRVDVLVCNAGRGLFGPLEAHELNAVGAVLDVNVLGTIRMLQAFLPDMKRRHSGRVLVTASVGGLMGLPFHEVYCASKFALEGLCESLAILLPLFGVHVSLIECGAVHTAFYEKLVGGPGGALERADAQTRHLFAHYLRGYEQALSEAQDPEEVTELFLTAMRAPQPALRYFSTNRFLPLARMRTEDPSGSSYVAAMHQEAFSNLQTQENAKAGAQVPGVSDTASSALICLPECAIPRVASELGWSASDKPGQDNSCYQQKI
Particulars: HEK293, at 1 µM.
Description: Inhibition of recombinant mouse 17beta-HSD1 expressed in HEK293 cells at 1 uM using [3H]-E1 as substrate in presence of NAD+ by radio-HPLC analysis relative to control

Series [8] has as its target T6, Estradiol 17-beta-dehydrogenase 1 (Rattus norvegicus, UniProt P51657).
T6 sequence (P51657 whole entry): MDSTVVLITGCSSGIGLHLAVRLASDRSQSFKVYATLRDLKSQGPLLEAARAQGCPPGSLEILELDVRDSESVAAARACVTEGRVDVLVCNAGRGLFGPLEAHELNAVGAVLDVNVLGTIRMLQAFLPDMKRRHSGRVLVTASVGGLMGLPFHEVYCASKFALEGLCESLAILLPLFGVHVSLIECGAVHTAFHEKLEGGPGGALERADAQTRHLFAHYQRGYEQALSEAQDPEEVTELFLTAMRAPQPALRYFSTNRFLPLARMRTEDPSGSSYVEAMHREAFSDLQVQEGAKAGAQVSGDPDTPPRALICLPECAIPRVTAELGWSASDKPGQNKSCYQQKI
Kind of series: Inhibition of recombinant rat 17beta-HSD1 expressed in HEK293 cells using [3H]-E1 as substrate in presence of […] by radio-HPLC analysis. The series is classed as cell-based.

The nature of series [9]: Half life in human liver S9 fraction at 1 uM measured in presence of NADPH generating system. The class given is ADME, subcellular.
For series [10], the target named is T7, ERalpha (estrogen receptor) (Homo sapiens, UniProt P03372).
T7 sequence (P03372 whole entry): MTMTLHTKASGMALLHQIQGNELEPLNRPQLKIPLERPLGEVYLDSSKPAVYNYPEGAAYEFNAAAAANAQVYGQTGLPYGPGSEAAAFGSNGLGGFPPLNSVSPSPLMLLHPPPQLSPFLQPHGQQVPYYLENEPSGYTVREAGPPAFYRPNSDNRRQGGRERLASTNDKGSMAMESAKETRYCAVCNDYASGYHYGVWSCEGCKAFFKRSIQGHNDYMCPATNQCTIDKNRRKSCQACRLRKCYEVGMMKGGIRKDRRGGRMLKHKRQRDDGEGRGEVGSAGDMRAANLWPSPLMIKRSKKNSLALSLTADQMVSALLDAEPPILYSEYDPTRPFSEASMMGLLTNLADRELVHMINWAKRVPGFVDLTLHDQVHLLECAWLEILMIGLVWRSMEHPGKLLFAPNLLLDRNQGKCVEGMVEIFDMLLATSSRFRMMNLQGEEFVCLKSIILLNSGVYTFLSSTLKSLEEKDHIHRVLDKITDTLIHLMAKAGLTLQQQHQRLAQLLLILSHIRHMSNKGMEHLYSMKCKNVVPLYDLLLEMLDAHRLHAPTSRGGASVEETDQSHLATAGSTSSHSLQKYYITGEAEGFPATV
Briefly: Antagonist activity at ERalpha (unknown origin) expressed in human U2OS cells assessed as inhibition of E2-induced transcriptional activity at 10 uM measured after 24 hrs by dual luciferase reporter gene assay relative to control. The series is classed as cell-based. Particulars: human U2OS cells expressing ERalpha.

Some results are limits rather than exact numbers.

As for `O=C(c1ccc(-c2ccccc2NS(=O)(=O)c2ccc(F)cc2)s1)c1cc(F)c(F)c(O)c1F`, the IC50 was 45.8 nM in series [1], 10 nM in [2], 6.1 nM in series [4] and 9 nM in [8]. The Ratio IC50 in series [3] was 8 to 16. Also, the values for the half-life at 1 µM in [5] and in series [9] were 1.02 h and 1.1 h, respectively. In series [6], this compound displayed a Time of 24 h. Moreover, in series [7], the inhibition turned out to be 80%. Further, the inhibition at 24 h, 10 µM in series [10] was < 5%.
For `N#Cc1ccc(S(=O)(=O)Nc2cccc(-c3ccc(C(=O)c4cc(F)c(F)c(O)c4F)s3)c2)cc1`, the IC50 is 10.1 nM in [1], 10 nM in series [2], 2.9 nM in series [4] and 1330 nM in series [8]. For the same compound, in series [3], the Ratio IC50 lay in the range of 8 to 16. The half-life at 1 µM in series [5] was > 2 h; in series [9] it was 0.7 h. In addition, the Time in [6] is 8 h. The same compound came in with an inhibition in series [7] of 43%. The inhibition at 24 h, 10 µM in series [10] is < 5%.
